Molecules are shown by their SMILES. Where a name gives a salt, the structure may show the parent alone. Read-outs that look alike come from different tables or passages of the source.

What all share (assay): Effect of potential inhibitors and metallic ions on rate of formation of pravastatin sodium from sodium ML-236B carboxylate (method ii)
For data set [1], the system named is cytochrome P-450sca-1. It is filed as biochemical, Streptomyces carbophilus. The settings on record: for Residual activity of enzyme P-450sca-1: 5 min; for inhibition of cytochrome (in words): each cytochrome. On the procedure: (§1) The following cocktail of components is employed:
(§2) The components of the Table are mixed, the solution is shaken at 30°C for 5 minutes, and then 10 »l of 6 N NaOH is added and the reaction stopped. The amount of pravastatin sodium formed by the enzyme system is determined with HPLC.
(§3) The effects of potential inhibitors against cytochrome P-450sca-1 P-450sca-2, P-450sca-3 and the effects of metallic ions on the action of the cytochrome P-450 can be assessed quantitatively using the method (ii).

Data set [2] has as its target T1, P-450sca-2 (Streptomyces carbophilus, UniProt Q59831).
T1 construct: made in house; host or cells: Streptomyces carbophilus SANK 62585 (FERM BP-1145), native producer, not recombinant
T1 sequence (Q59831 1-410): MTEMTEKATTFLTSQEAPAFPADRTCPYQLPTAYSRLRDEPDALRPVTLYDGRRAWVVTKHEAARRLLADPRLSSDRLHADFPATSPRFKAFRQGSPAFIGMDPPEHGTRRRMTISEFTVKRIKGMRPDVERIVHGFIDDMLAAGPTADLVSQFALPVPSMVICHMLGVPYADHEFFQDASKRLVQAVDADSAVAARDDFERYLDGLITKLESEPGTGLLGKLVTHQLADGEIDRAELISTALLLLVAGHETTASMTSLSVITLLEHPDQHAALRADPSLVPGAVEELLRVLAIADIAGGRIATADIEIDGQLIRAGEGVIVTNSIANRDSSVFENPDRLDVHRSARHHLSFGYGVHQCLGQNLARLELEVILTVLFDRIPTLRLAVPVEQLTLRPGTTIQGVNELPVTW
It is filed as biochemical. To be noted: for remaining activity at 2000 µM: read-out: Residual activity of enzyme P-450sca-2. How it is done:
(§4) (ii) Measurement of rate of formation of pravastatin sodium from sodium ML-236B carboxylate
as §1, §2, §3

Data set [3] has as its system P-450sca-3. Format: biochemical, Streptomyces carbophilus. On the procedure:
as §4, §1, §2, §3

On to `[Cl-].[Cl-].[Co+2]` [CoCl₂], for which, in data set [1] (1 mM added compound), the “Residual activity of enzyme P-450sca-1” value stood at 65.0%. The “inhibition of cytochrome (in words)” value in data set [1], in data set [2] (each cytochrome) and in data set [3] (each cytochrome) was “inhibited” each time. For the same molecule, the “Residual activity of enzyme P-450sca-2” value in data set [2] (1 mM added compound) stood at 67.5%. Further, the “Residual activity of enzyme P-450sca-3” value in data set [3] (1 mM added compound) came out at 60.1%.

For the molecule `[Cl][Mn][Cl]` [MnCl₂], the “Residual activity of enzyme P-450sca-1” value in data set [1] (1 mM added compound) came out at 20.0%. Moreover, the “inhibition of cytochrome (in words)” value in data set [1], in data set [2] (each cytochrome) and in data set [3] (each cytochrome) was “inhibited” throughout. In data set [2] (1 mM added compound), the “Residual activity of enzyme P-450sca-2” value was 18.7%. For the same molecule, in data set [3] (1 mM added compound), the “Residual activity of enzyme P-450sca-3” value was 17.5%.

Regarding `CN/C(=N/CCSCc1nc[nH]c1C)NC#N` [Cimetidine], the “Residual activity of enzyme P-450sca-1” value in data set [1] (2 mM added compound) came to 58.7%. The “inhibition of cytochrome (in words)” value in data set [1], in data set [2] and in data set [3] was “inhibited” each time. Further, the remaining activity at 2000 µM in data set [2] stood at 45.7%. The “Residual activity of enzyme P-450sca-3” value in data set [3] (2000 µM) is reported as 43.8%.

Turning to `[Ca+2].[Cl-].[Cl-]` [CaCl₂], the “Residual activity of enzyme P-450sca-1” value in data set [1] (1 mM added compound) stood at 100.0%. In data set [2] (1 mM added compound), the “Residual activity of enzyme P-450sca-2” value turned out to be 100.0%. For the same molecule, the “Residual activity of enzyme P-450sca-3” value in data set [3] (1 mM added compound) was found to be 100.0%.

As for `CCCC(C(=O)OCCN(CC)CC)(c1ccccc1)c1ccccc1` [SKF-525A, 2-diethylaminoethyl-2,2-diphenyl valerate hydrochloride], the “Residual activity of enzyme P-450sca-1” value in data set [1] (2 mM added compound) came to 25.8%. For the same molecule, the “inhibition of cytochrome (in words)” value in data set [1], in data set [2] (each cytochrome) and in data set [3] (each cytochrome) was “inhibited” each time. Also, the remaining activity at 2000 µM in data set [2] (2 mM added compound) is 22.8%. Besides, the “Residual activity of enzyme P-450sca-3” value in data set [3] (2 mM added compound) amounted to 24.1%.

Turning to `[Cl][Cu][Cl]` [CuCl₂], in data set [1] (1 mM added compound), the “Residual activity of enzyme P-450sca-1” value is on record as 0%. In addition, the “inhibition of cytochrome (in words)” value in data set [1], in data set [2] (each cytochrome) and in data set [3] (each cytochrome) was “inhibited” throughout. For the same molecule, the “Residual activity of enzyme P-450sca-2” value in data set [2] (1 mM added compound) was determined as 0%. The “Residual activity of enzyme P-450sca-3” value in data set [3] (1 mM added compound) amounted to 0%.

As for `[C-]#[O+]` [CO, carbon monoxide], the “Residual activity of enzyme P-450sca-1” value in data set [1] (CO bubbled in for 1 minute) worked out at 50.0%. Further, the “inhibition of cytochrome (in words)” value in data set [1], in data set [2] (each cytochrome) and in data set [3] (each cytochrome) was “inhibited” throughout. For the same molecule, the “Residual activity of enzyme P-450sca-2” value in data set [2] (CO bubbled in for 1 minute) is listed as 55.0%. Further, the “Residual activity of enzyme P-450sca-3” value in data set [3] (CO bubbled in for 1 minute) is recorded as 60.4%.
